In patent US20190256491A1, “Methods For Treatment Of 16P11.2 Microdeletion Syndrome” (Massachusetts Institute of Technology, priority 2012, published 2019):
Entries after “also recorded” stand apart in the source; their conditions may differ.

Columns and labels:
[1] = test system: mGluR-LTD at the Schaffer collateral-CA1 synapse of hippocampal slices; test: DHPG-LTD, hippocampal slice electrophysiology; parameters: species or system mouse; conditions: CHX 60 μM, 40 min, DHPG 50 μM, 5 min
Experimental: (§1) Electrophysiological experiments were performed at the Schaffer collateral-CA1 synapse of hippocampal slices prepared from p28 to p35 male mice using experimental protocols as previously described ((Auerbach et al., 2011)). Dorsal hippocampal slices (400 μm thick) were used in all recordings. Input-output functions were determined by incrementally (10 μA to 100 μA) stimulating the Schaffer collaterals and recording the resulting fEPSP response. Paired-pulse facilitation was conducted by applying two stimulus pulses at varying inter-stimulus-intervals (ISI). Facilitation was measured by taking the ratio of the fEPSP slope in response to stimulus 2 to that of stimulus 1. […] For paired-pulse low frequency stimulation (PP-LFS) slices were incubated in ACSF containing APV (50 μM)±CHX for 30 min. mGluR5-LTD was then induced by application (20 min) of paired-pulse stimulation (50 ms ISI) at 1 Hz, and synaptic responses were recorded for an additional 60 min.
(§2) Group I mGluR mediated synaptic plasticity was assessed. mGluR-LTD can be induced either by chemical induction by pharmacological stimulation of mGluRs (DHPG-LTD) or electrical induction by applying a series of paired pulses at about 50 ms interval (PP-LFS-LTD). […]

[2] = test system: mGluR5-LTD at the Schaffer collateral-CA1 synapse of hippocampal slices; test: PP-LFS LTD, hippocampal slice electrophysiology; parameters: species or system mouse; conditions: ACSF with APV 50 μM ± CHX 30 min
Experimental: as §1, §2

[3] = test system: pre-synaptic glutamate release, Schaffer collateral-CA1 synapse of hippocampal slices; test: Paired-pulse facilitation at beginning and end of DHPG-LTD experiment; parameters: species or system mouse; conditions: both WT and mutant slices; independent of CHX treatment
Experimental: as §1
To test whether the difference in CHX sensitivity between WT and mutant slices was due to a different pre-synaptic response to either DHPG treatment or PP-LFS induction, paired pulse facilitation at the beginning and end of DHPG-LTD experiment (FIGS. 2C and 2D) was assessed. […]

[4] = test system: chr7qF3 mutant mice (mouse model of human chr16p11.2 microdeletion) and WT mice; test: Inhibitory avoidance extinction (IAE) test; type: in vivo
Experimental: Inhibitory avoidance extinction (IAE) tests were performed as previously described with modification ((Dolen et al., 2007)). Briefly, 4-6 weeks male mice were divided into four groups according to genotype and CTEP treatment: WT+vehicle, WT+CTEP, Mutant+vehicle, and Mutant+CTEP. CTEP or vehicle was administered by oral gavage every other day for 4 weeks. The last dose was given about 16-20 hours prior to the training session. IA tests were conducted in a two-chambered Perspex box consisting of a lighted side and a dark side separated by a trap door. On the training day, mice were habituated in the behavioral room for about 2 hours before training. During training, a mouse was placed into the lit side of the chamber and allowed to explore for about 30 seconds before the trap door was opened. The ensuing time spent by the animal in the light chamber before entering the dark chamber was recorded as latency. Immediately after fully entering the dark side of the camber, subjects were given about a 2 sec mild foot shock (about 0.4 mA) and allowed to spend an additional 60 sec before being returned to their home-cage. The acquisition and expression of fear memory was tested at about 6, about 24, and about 48 hours post training. The testing protocol used was the same as the training protocol. Latencies to enter the dark side of the chamber were recorded and used as measurement of IAE performance. Statistical significance was determined using two-way ANOVA and post hoc Student's t-tests.
Mice were evaluated in another hippocampus-associated behavioral paradigm: inhibitory avoidance (IA). IA is a multi-phase test used to assay memory formation and extinction. During the training session (0 hr), mice were placed in the light chamber of a two-chamber box. After a variable latency in the light side, they entered the dark side of the box where about a 2 sec foot-shock was delivered. Acquisition and extinction of the fear memory, as measured by the latency to re-enter the dark chamber from the lighted side, was tested 6 hr (acquisition) as well as about 24 hr and about 48 hr (extinction) after training. Experiments were conducted to determine: (1) if chr7qF3 mice had deficits similar to Fmrl KO mice in the IA test, and (2) if deficits were present, could the mGluR5 inhibitor CTEP treatment ameliorate them. Mice were divided into four groups: WT+vehicle, WT+CTEP, Mut+vehicle, and Mut+CTEP. CTEP was given by the same dosing regime previously used with Fmrl KO mice ((Michalon et al., 2012)).

With C[C@@H]1C[C@@H]([C@H](O)CC2CC(=O)NC(=O)C2)C(=O)[C@@H](C)C1 [CHX, Cycloheximide] the “effect on DHPG-induced LTD” value ([1]; WT slices) was “significantly blocked”, the “effect on DHPG-induced LTD” value ([1]; chr7qF3 mutant slices) was “no effect; also recorded: remains unaffected” and the “effect on PP-LFS LTD” value ([2]; WT slices) was “almost completely blocked”. The “effect on PP-LFS LTD” value ([2]; chr7qF3 mutant slices) was “no effect; also recorded: remains unaffected”.
In the case of N[C@H](C(=O)O)c1cc(O)cc(O)c1 [DHPG, S-3,5-dihydrozyphenylglycine], the “paired pulse facilitation after DHPG treatment” value [3] is reported as “increased paired pulse facilitation”.
Cc1nc(C#Cc2ccnc(Cl)c2)c(C)n1-c1ccc(OC(F)(F)F)cc1 [CTEP, 2-chloro-4-((2,5-dimethyl-1-(4-(trifluoromethoxy)phenyl)-1H-imidazol-4-yl)ethynyl)pyridine] was tested, and the “latency to re-enter the chamber” value ([4]; Chr7qF3 mutant mice, 6, 24 and 48 hours post training, chronic oral gavage every other day for 4 weeks) was “significantly lengthens”, the “extinction of fear memory at 48 hr” value ([4]; Mut+CTEP, similar to the two wildtype groups) was “significant extinction” and the “latency to re-enter the dark chamber at 6 hr (acquisition)” value ([4]; Mut+CTEP, to a level comparable to WT+vehicle mice) was “dramatically lengthened”. The “effect on latency to re-enter the chamber” value ([4]; WT mice, WT+CTEP vs WT+vehicle) was “no effect”, the “extinction of fear memory at 48 hr” value ([4]; WT+CTEP) was “exhibited extinction” and the “cognitive impairment / fear memory deficits in IAE test” value ([4]; chr7qF3 mutant mice, chronic oral treatment) was “significantly ameliorates; also recorded: ameliorated”.
